Source: paper PMC8037814, “Polymorphic Characterization, Pharmacokinetics, and Anti-Inflammatory Activity of Ginsenoside Compound K Polymorphs” (Molecules, 2021)
“And” between values parts separate entries of the source, which are not always exact repeats. Identical values can stand only once.

Key:
[1] = Pharmacokinetics after oral administration of CK polymorphs in rats (20 mg/kg); format: in vivo, Sprague-Dawley rats; settings: for Fabs (absolute bioavailability): p.o. 20 mg/kg vs i.v. 10 mg/kg, dose-adjusted AUC ratio
[2] = DSC thermal analysis of CK polymorphs; format: physicochemical; settings: 20 K/min from 20 to 400 °C, dry nitrogen flow
Procedure: DSC measurements were performed on a DSC204 Phoenix calorimeter (NETZSCH, Selb, Germany) with a heating rate of 20 K/min from 20 to 400 °C. The dry nitrogen flow was about 50 mL/min. Data were analyzed using NETZSCH analysis software.

[3] = Pharmacokinetics after oral administration of CK polymorphs in rats (20 mg/kg); format: in vivo, Sprague-Dawley rats; settings: p.o. 20 mg/kg, individual rats 1-3
Procedure: All samples were analyzed with a triple quadrupole LC-MS/MS (API 4000 LC-MS/MS, AB Sciex, Framingham, MA, USA) coupled with an Agilent 1200 HPLC system (Agilent Technologies, Palo Alto, CA, USA). The MS was equipped with an electrospray system (ESI). The N2 gas temperature and ion-spray voltage were set to 550 °C and 4.5 kV, respectively. CK was measured in multiple reaction monitoring (MRM) mode using a negative electrospray ionization source at m/z 667.4 → 621.2 for CK (CID 25.6 v) and m/z 271.2 → 228.8 for internal standard (IS, (E)-5-(4-fluorostyryl)-2-isopropylbenzene-1,3-diol, Welichem Biotech Inc., Wayburne Drive Burnaby, BC, Canada) (CID 28.3 v) with a dwell time of 0.1 s.
Rats were divided randomly into 5 groups of six animals each (sex in half) and given 7 days to acclimatize to the facility before the experiments began. The four forms of CK were suspended in 0.5% sodium carboxymethyl cellulose (CMC-Na) solution and orally administered to rats at a dose of 20 mg/kg. A CK solution in a mixed solvent of dimethyl sulfoxide (DMSO)/castor oil/physiologic saline (3:5:92, v/v) was intravenously administered to the remaining group via the tail vein at a dose of 10 mg/kg. Blood samples were collected by retro-orbital puncture at the following times: 0.167, 0.333, 0.667, 1, 2, 3, 4, 6, 9, 12, and 24 h for the oral administration, and at 0.0083, 0.05, 0.133, 0.25, 0.5, 1, 2, 4, 6, and 9 h for the intravenous administration. Plasma samples were obtained by centrifuging a heparinized blood tube at 4000 rpm for 5 min and then stored at −70 °C until analysis.
The procedure for drug extraction from plasma samples was as follows: 0.2 mL acetonitrile, 0.2 mL plasma sample, and 10 μL IS (1 µg/mL) were added into a 1.5 mL Eppendorf-type tube. This mixture was vortexed for 1 min and then treated with 0.8 mL of methyl tert-butyl ether (MTBE) to precipitate the plasma proteins. After a mechanical vortex for 1 min and subsequent centrifugation (4000 rpm, 5 min), 0.8 mL of the supernatant was transferred and blow-dried with N2 at 40 °C in a water bath. Finally, the residue was dissolved in 120 μL of mobile phase, and then 10 μL was subjected to HPLC for analysis. […] Intra- and inter-day precision and accuracy never exceeded 15% by analyzing six replicate samples.
The CK pharmacokinetic parameters in rats, including the area under the curve (AUC(0–t) and AUC(0–∞)), mean residence time (MRT(0–t) and MRT(0–∞)), maximum concentration (Cmax), time to maximum concentration (Tmax), half-life (t1/2), apparent distribution volume (V), and total plasma clearance (CL), were derived from plasma concentration-time curves by using non-compartmental analysis (NCA) with DAS 2.0 software (Drug And Statistics, Mathematical Pharmacology Professional Committee of China, Shanghai, China). The absolute bioavailability (Fabs) was calculated from the dose-adjusted ratio of AUCp.o. to AUCi.v.. One-way analysis of variance (ANOVA) by SPSS 11.5 (SPSS Inc., Chicago, IL, USA) was conducted to compare the primary PK parameters.

[4] = test system: carrageenan-induced acute paw inflammation; experiment: Paw swelling test induced by carrageenan in rats; format: in vivo, Sprague-Dawley rats; parameters: paw volume: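 right hind paw volume measured with a plethysmometer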; settings: for paw volume / paw edema: mean±SD of 6 rats; for edema inhibition: versus model group
Procedure: Rats were divided into 11 groups of six animals each (sex in half): the normal group, the model group, indomethacin group (1 mg/kg), and form I, II, III, IV groups (each form set 10 mg/kg and 20 mg/kg groups, respectively). Indomethacin and CK were ground and suspended in 0.5% CMC-Na solution. […] The same volume of saline was injected into the normal group. […] Paw edema and inhibitory rate were calculated as the following formula, and the differences among groups were compared with the t-test. Paw edema (%) = (Vn − V0)/V0 × 100%. Vn: paw volume at different time intervals after carrageenan injection. V0: paw volume before carrageenan injection. Inhibitory rate (%) = (Em − Ee)/Em × 100%. Em: paw edema of the model group. Ee: paw edema of the experimental group.

[5] = female rats, p.o. 20 mg/kg, mean ± SD (n = 3), 20 mg/kg
[6] = male rats, p.o. 20 mg/kg, mean ± SD (n = 3), 20 mg/kg
[7] = 10 mg/kg p.o. qd 3 days, 3h after carrageenan, listed as From II
[8] = 10 mg/kg p.o. qd 3 days, 4h after carrageenan, listed as From II
[9] = 10 mg/kg p.o. qd 3 days, 5h after carrageenan, listed as From II
[10] = 10 mg/kg p.o. qd 3 days, 6h after carrageenan, listed as From II
[11] = 20 mg/kg p.o. qd 3 days, 3h after carrageenan, listed as From II
[12] = 20 mg/kg p.o. qd 3 days, 4h after carrageenan
[13] = 20 mg/kg p.o. qd 3 days, 4h after carrageenan, listed as From II
[14] = 20 mg/kg p.o. qd 3 days, 5h after carrageenan, listed as From II
[15] = 20 mg/kg p.o. qd 3 days, 6h after carrageenan, listed as From II

Q: With CC(C)=CCCC(C)(OC1OC(CO)C(O)C(O)C1O)C1CCC2(C)C1C(O)CC1C3(C)CCC(O)C(C)(C)C3CCC12C [Form II, 20-O-β-D-glucopyranosyl-20(S)-protopanaxadiol] as the molecule, how does the “maximum differences of the average Cmax and AUC(0–∞) values, form II compared to form IV” value ([1]; female groups, p.o. 20 mg/kg) read?
A: 2.1 fold

Q: And the “Fabs (absolute bioavailability)” value ([1]; female rats)?
A: 7.87%

Q: What about the t1/2z ([1]; female rats, p.o. 20 mg/kg, individual rats 1-3, 20 mg/kg) of the same molecule?
A: 3.96 h and 2.99 h and 2.49 h

Q: What about the “AUC(0–t)” value [1, 5] of the same molecule?
A: 2447.2 ± 1828.5 ng·h/mL

Q: What about the “AUC(0–∞)” value [1, 5] of the same molecule?
A: 2551.23 ± 1967.99 ng·h/mL and 2551.2 ± 1968.0 ng·h/mL

Q: What about the CLz/F [1, 5] of the same molecule?
A: 180 ± 96.5 mL/min/kg

Q: And the Cmax [1, 5]?
A: 459.59 ± 289.63 ng/mL and 459.6 ± 289.6 ng/mL

Q: And the Vz/F [1, 5]?
A: 45.3 ± 20.0 L/kg

Q: And the t1/2z [1, 5]?
A: 3.15 ± 0.75 h and 3.2 ± 0.75 h

Q: What about the AUC(0-t) ([1]; female, Sprague-Dawley, rat, plasma, po, 20 mg/kg, female rats, p.o. 20 mg/kg, mean ± SD (n = 3)) of the same molecule?
A: 2450 ± 1830 ng·h/mL

Q: What about the CL/F ([1]; female, Sprague-Dawley, rat, plasma, po, 20 mg/kg, female rats, p.o. 20 mg/kg, mean ± SD (n = 3), read-out: CLz/F (converted)) of the same molecule?
A: 180 mL/min/kg

Q: And the “maximum differences of the average Cmax and AUC(0–∞) values, form II compared to form IV” value ([1]; male groups, p.o. 20 mg/kg)?
A: 1.6 fold

Q: And the “Fabs (absolute bioavailability)” value ([1]; male rats)?
A: 4.07%

Q: And the Vz/F ([1]; male rats, p.o. 20 mg/kg, individual rats 1-3, 20 mg/kg)?
A: 102.18 L/kg and 80.31 L/kg and 39.93 L/kg

Q: And the “AUC(0–t)” value [1, 6]?
A: 1191.06 ± 471.90 ng·h/mL and 1191.1 ± 471.90 ng·h/mL

Q: And the “AUC(0–∞)” value [1, 6]?
A: 1235.2 ± 474.45 ng·h/mL

Q: What about the CLz/F [1, 6] of the same molecule?
A: 299.5 ± 118 mL/min/kg and 300 ± 118 mL/min/kg

Q: And the Cmax [1, 6]?
A: 232.33 ± 68.97 ng/mL and 232.3 ± 68.97 ng/mL

Q: What about the Vz/F [1, 6] of the same molecule?
A: 74.14 ± 31.58 L/kg and 74.1 ± 31.6 L/kg

Q: What about the t1/2z [1, 6] of the same molecule?
A: 2.93 ± 1.14 h and 2.9 ± 1.1 h

Q: What about the AUC(0-inf) ([1]; male, Sprague-Dawley, rat, plasma, po, 20 mg/kg, male rats, p.o. 20 mg/kg, mean ± SD (n = 3)) of the same molecule?
A: 1240 ± 474 ng·h/mL

Q: And the “DSC onset of the decomposition endotherm (thermodynamical stability)” value [2]?
A: 263.1 °C

Q: What about the “AUC(0-t)” value ([3]; female rats) of the same molecule?
A: 4557.73 ng·h/mL and 1338.42 ng·h/mL and 1445.59 ng·h/mL

Q: What about the “AUC(0-∞)” value ([3]; female rats) of the same molecule?
A: 4823.11 ng·h/mL and 1371.40 ng·h/mL and 1459.17 ng·h/mL

Q: And the CLz/F ([3]; female rats)?
A: 69.2 mL/min/kg and 243 mL/min/kg and 228.5 mL/min/kg

Q: And the Cmax ([3]; female rats)?
A: 777.00 ng/mL and 209.65 ng/mL and 392.12 ng/mL

Q: What about the Vz/F ([3]; female rats) of the same molecule?
A: 23.70 L/kg and 62.95 L/kg and 49.26 L/kg

Q: And the “AUC(0-t)” value ([3]; male rats)?
A: 1095.34 ng·h/mL and 774.36 ng·h/mL and 1703.47 ng·h/mL

Q: What about the “AUC(0-∞)” value ([3]; male rats) of the same molecule?
A: 1198.51 ng·h/mL and 780.14 ng·h/mL and 1726.92 ng·h/mL

Q: What about the CLz/F ([3]; male rats) of the same molecule?
A: 278.2 mL/min/kg and 427.3 mL/min/kg and 193 mL/min/kg

Q: And the Cmax ([3]; male rats)?
A: 187.99 ng/mL and 197.22 ng/mL and 311.79 ng/mL

Q: And the t1/2z ([3]; male rats)?
A: 2.17 h and 2.39 h and 4.24 h

Q: And the paw volume ([4]; 10 mg/kg p.o. qd 3 days, 0h (before carrageenan), listed as From II)?
A: 1.57±0.12

Q: And the paw edema [4, 7]?
A: 55.25±18.20%

Q: And the paw volume [4, 7]?
A: 2.41±0.16

Q: What about the edema inhibition [4, 7] of the same molecule?
A: 14.03%

Q: And the paw edema [4, 8]?
A: 47.34±11.94%

Q: And the paw volume [4, 8]?
A: 2.30±0.14

Q: And the edema inhibition [4, 8]?
A: 24.09%

Q: What about the paw edema [4, 9] of the same molecule?
A: 33.73±13.72%

Q: And the paw volume [4, 9]?
A: 2.08±0.12

Q: What about the edema inhibition [4, 9] of the same molecule?
A: 34.84%

Q: What about the paw edema [4, 10] of the same molecule?
A: 27.25±10.94%

Q: And the paw volume [4, 10]?
A: 1.98±0.08

Q: What about the edema inhibition [4, 10] of the same molecule?
A: 30.70%

Q: And the paw volume ([4]; 20 mg/kg p.o. qd 3 days, 0h (before carrageenan), listed as From II)?
A: 1.65±0.14

Q: What about the paw edema [4, 11] of the same molecule?
A: 45.81±8.11%

Q: And the paw volume [4, 11]?
A: 2.40±0.15

Q: And the edema inhibition [4, 11]?
A: 28.72%

Q: What about the paw edema [4, 12] of the same molecule?
A: 39.7 ± 6.4%

Q: What about the paw edema [4, 13] of the same molecule?
A: 39.71±6.48%

Q: What about the paw volume [4, 13] of the same molecule?
A: 2.30±0.14

Q: What about the edema inhibition [4, 12] of the same molecule?
A: 36.3%

Q: And the edema inhibition [4, 13]?
A: 36.33%

Q: And the paw edema [4, 14]?
A: 29.62±8.06%

Q: And the paw volume [4, 14]?
A: 2.13±0.15

Q: And the edema inhibition ([4]; 20 mg/kg p.o. qd 3 days, 5h after carrageenan)?
A: 42.7%

Q: What about the edema inhibition [4, 14] of the same molecule?
A: 42.77%

Q: What about the paw edema [4, 15] of the same molecule?
A: 23.59±8.59%

Q: What about the paw volume [4, 15] of the same molecule?
A: 2.03±0.14

Q: What about the edema inhibition ([4]; 20 mg/kg p.o. qd 3 days, 6h after carrageenan) of the same molecule?
A: 40.0%

Q: And the edema inhibition [4, 15]?
A: 40.00%
